Reference: PubChem BioAssay AID651817 (Broad Institute, 2012)
Activity calls are given as the source filed them.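 Rule for the calls: active = compound whose fitted luminescence drop, meaning cytotoxicity, reaches half effect at most twice its top valid tested dose; inconclusive = flat curve with a moderate drop, or an unreliable fit; inactive = rise instead of drop, flat response, or weaker potency.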

Experiment: mouse fibroblast viability loss – cell-based, cherry-pick samples, set 2, cytotoxicity control for T. cruzi growth inhibitor project, dose response (AID 651817)
Conditions: NIH/3T3 viability, ATP luminescence (CellTiter-Glo), 90 h; at 4.2 µM (top of the series)

| SMILES | activity change, negative = cytotoxicity |
| --- | --- |
| C[C@@H]1CN([C@H](C)CO)C(=O)c2cccc(NC(=O)Nc3ccc(C(F)(F)F)cc3)c2O[C@@H]1CN(C)Cc1ccc(Cl)c(Cl)c1 | 37.5% (inactive) |

Same assay, conditions: NIH/3T3 viability, ATP luminescence (CellTiter-Glo), 90 h; at 19.5 µM (top of the series)

| SMILES | activity change, negative = cytotoxicity |
| --- | --- |
| C[C@@H]1CN([C@H](C)CO)C(=O)c2cccc(NC(=O)c3ccncc3)c2O[C@@H]1CN(C)Cc1ccc(C(F)(F)F)cc1 | -24.5% (inactive) |
| C[C@@H]1CN([C@H](C)CO)C(=O)c2cccc(NC(=O)c3nc4ccccc4s3)c2O[C@H]1CN(C)S(=O)(=O)c1ccc(Cl)cc1 | -10.1% (inactive) |
| Cc1ccc(S(=O)(=O)Nc2ccc3c(c2)CC(=O)N([C@@H](C)CO)C[C@H](C)[C@H](CN(C)S(=O)(=O)c2ccc(Cl)cc2)O3)cc1 | -3.56% (inactive) |
| Cc1ccc(S(=O)(=O)Nc2ccc3c(c2)CC(=O)N([C@H](C)CO)C[C@H](C)[C@H](CN(C)Cc2ccc(Cl)c(Cl)c2)O3)cc1 | -1.7% (inactive) |
| C[C@@H]1CN([C@H](C)CO)C(=O)c2cccc(NC(=O)c3ccncc3)c2O[C@H]1CN(C)CC1CC1 | -26.2% (inactive) |
| C[C@H](CO)N1C[C@H](C)[C@@H](CN(C)S(=O)(=O)c2ccccc2)Oc2c(NC(=O)c3nc4ccccc4s3)cccc2C1=O | -18.8% (inactive) |
| Cc1ccc(S(=O)(=O)N(C)C[C@H]2Oc3c(NC(=O)c4nc5ccccc5s4)cccc3C(=O)N([C@@H](C)CO)C[C@@H]2C)cc1 | -1.47% (inactive) |
| C[C@@H]1CN([C@@H](C)CO)C(=O)Cc2cc(NS(=O)(=O)c3ccc(Cl)cc3)ccc2O[C@@H]1CN(C)S(=O)(=O)c1ccc(Cl)cc1 | -14.1% (inactive) |
| C[C@H](CO)N1C[C@H](C)[C@H](CN(C)Cc2ccc(-c3ccccc3)cc2)Oc2c(NC(=O)c3ccncc3)cccc2C1=O | 4.37% (inactive) |
| Cc1ccc(S(=O)(=O)N(C)C[C@@H]2Oc3ccc(NS(=O)(=O)c4ccc(Cl)cc4)cc3CC(=O)N([C@@H](C)CO)C[C@H]2C)cc1 | -61.2% (inactive) |
| C[C@@H]1CN([C@H](C)CO)C(=O)Cc2cc(NS(=O)(=O)c3ccc(F)cc3)ccc2O[C@@H]1CN(C)Cc1ccc(Cl)c(Cl)c1 | -49.8% (inactive) |
| C[C@H](CO)N1C[C@H](C)[C@@H](CN(C)Cc2ccc(Cl)c(Cl)c2)Oc2c(NC(=O)c3ccncc3)cccc2C1=O | -21.9% (inactive) |
| C[C@@H]1CN([C@H](C)CO)C(=O)c2cccc(NC(=O)c3nc4ccccc4s3)c2O[C@@H]1CN(C)S(=O)(=O)c1ccccc1 | 35.6% (inactive) |
| C[C@@H]1CN([C@@H](C)CO)C(=O)c2cccc(NC(=O)c3nc4ccccc4s3)c2O[C@@H]1CN(C)S(=O)(=O)c1ccc(Cl)cc1 | -8.38% (inactive) |
| C[C@@H]1CN([C@@H](C)CO)C(=O)c2cccc(NC(=O)c3ccncc3)c2O[C@@H]1CN(C)Cc1ccc(Cl)c(Cl)c1 | 33% (inactive) |
| C[C@H]1CN([C@@H](C)CO)C(=O)c2cccc(NC(=O)c3ccncc3)c2O[C@@H]1CN(C)Cc1ccc(-c2ccccc2)cc1 | -14.8% (inactive) |
| Cc1noc(C)c1NC(=O)Nc1cccc2c1O[C@H](CN(C)S(C)(=O)=O)[C@@H](C)CN([C@@H](C)CO)C2=O | -18.2% (inactive) |
| C[C@@H]1CN([C@H](C)CO)C(=O)c2cccc(NC(=O)c3ccncc3)c2O[C@@H]1CN(C)Cc1ccc2c(c1)OCO2 | -25.6% (inactive) |
| C[C@@H]1CN([C@H](C)CO)C(=O)c2cccc(NC(=O)c3ccncc3)c2O[C@H]1CN(C)CC1CCCCC1 | -12.3% (inactive) |
| C[C@H](CO)N1C[C@H](C)[C@@H](CN(C)CC2CCCCC2)Oc2c(NC(=O)c3ccncc3)cccc2C1=O | -21.4% (inactive) |
| Cc1noc(C)c1NC(=O)Nc1cccc2c1O[C@@H](CN(C)S(C)(=O)=O)[C@H](C)CN([C@@H](C)CO)C2=O | -28% (inactive) |
| C[C@@H]1CN([C@@H](C)CO)C(=O)c2cccc(NC(=O)c3ccncc3)c2O[C@@H]1CN(C)Cc1ccc(C(F)(F)F)cc1 | -16.7% (inactive) |
| Cc1ccc(S(=O)(=O)Nc2ccc3c(c2)CC(=O)N([C@H](C)CO)C[C@@H](C)[C@H](CN(C)S(=O)(=O)c2ccc(Cl)cc2)O3)cc1 | -23.3% (inactive) |

| SMILES | activity change, negative = cytotoxicity |
| --- | --- |
| Cc1ccc(S(=O)(=O)N(C)C[C@@H]2Oc3c(NC(=O)c4nc5ccccc5s4)cccc3C(=O)N([C@@H](C)CO)C[C@H]2C)cc1 | -13.6% (inactive) |
| C[C@@H]1CN([C@H](C)CO)C(=O)Cc2cc(NS(=O)(=O)c3ccccc3)ccc2O[C@H]1CN(C)S(=O)(=O)c1ccc(Cl)cc1 | -1.38% (inactive) |
| C[C@H]1CN([C@@H](C)CO)C(=O)c2cccc(NC(=O)NC3CCCCC3)c2O[C@@H]1CN(C)S(=O)(=O)c1ccc(F)cc1 | 3.7% (inactive) |
| C[C@@H]1CN([C@H](C)CO)C(=O)Cc2cc(NS(=O)(=O)c3ccc(Cl)cc3)ccc2O[C@H]1CN(C)Cc1ccc2c(c1)OCO2 | -22% (inactive) |
| COc1ccc(CN(C)C[C@@H]2Oc3c(NC(=O)c4ccncc4)cccc3C(=O)N([C@@H](C)CO)C[C@H]2C)cc1 | -18.8% (inactive) |
| COc1ccc(CN(C)C[C@@H]2Oc3c(NC(=O)Nc4ccc(C(F)(F)F)cc4)cccc3C(=O)N([C@@H](C)CO)C[C@@H]2C)cc1 | -25.6% (inactive) |
| Cc1ccc(S(=O)(=O)N(C)C[C@@H]2Oc3ccc(NS(=O)(=O)c4ccccc4)cc3CC(=O)N([C@H](C)CO)C[C@@H]2C)cc1 | 3.11% (inactive) |
| COc1ccc(S(=O)(=O)Nc2ccc3c(c2)CC(=O)N([C@H](C)CO)C[C@@H](C)[C@H](CN(C)Cc2ccc4c(c2)OCO4)O3)cc1 | 4.02% (inactive) |
| Cc1noc(C)c1NC(=O)Nc1cccc2c1O[C@H](CN(C)S(C)(=O)=O)[C@H](C)CN([C@H](C)CO)C2=O | -14.2% (inactive) |
| C[C@@H]1CN([C@H](C)CO)C(=O)c2cccc(NC(=O)NC3CCCCC3)c2O[C@@H]1CN(C)S(=O)(=O)c1ccc(F)cc1 | 18.6% (inactive) |
| C[C@H](CO)N1C[C@H](C)[C@H](CN(C)S(=O)(=O)c2ccc(F)cc2)Oc2c(NC(=O)NC3CCCCC3)cccc2C1=O | -54.5% (inactive) |
| C[C@@H]1CN([C@@H](C)CO)C(=O)c2cccc(NC(=O)c3nc4ccccc4s3)c2O[C@H]1CN(C)S(=O)(=O)c1ccccc1 | -9.49% (inactive) |
| Cc1ccc(S(=O)(=O)N(C)C[C@H]2Oc3c(NC(=O)c4nc5ccccc5s4)cccc3C(=O)N([C@H](C)CO)C[C@@H]2C)cc1 | -6.91% (inactive) |
| Cc1ccc(S(=O)(=O)N(C)C[C@@H]2Oc3ccc(NS(=O)(=O)c4ccccc4)cc3CC(=O)N([C@H](C)CO)C[C@H]2C)cc1 | -18.9% (inactive) |
| C[C@@H]1CN([C@H](C)CO)C(=O)c2cccc(NC(=O)c3ccncc3)c2O[C@@H]1CN(C)Cc1ccc(Cl)c(Cl)c1 | -9.65% (inactive) |
| C[C@H]1CN([C@@H](C)CO)C(=O)c2cccc(NC(=O)c3ccncc3)c2O[C@H]1CN(C)Cc1ccc(Cl)c(Cl)c1 | -14.4% (inactive) |
| C[C@@H]1CN([C@@H](C)CO)C(=O)c2cccc(NC(=O)c3nc4ccccc4s3)c2O[C@@H]1CN(C)S(=O)(=O)c1ccccc1 | -7.14% (inactive) |
| Cc1noc(C)c1NC(=O)Nc1cccc2c1O[C@H](CN(C)S(C)(=O)=O)[C@@H](C)CN([C@H](C)CO)C2=O | 2.45% (inactive) |
| C[C@@H]1CN([C@H](C)CO)C(=O)c2cccc(NC(=O)c3nc4ccccc4s3)c2O[C@H]1CN(C)Cc1ccc2c(c1)OCO2 | -10.9% (inactive) |
| C[C@@H]1CN([C@@H](C)CO)C(=O)c2cccc(NC(=O)c3ccncc3)c2O[C@@H]1CN(C)CC1CCCCC1 | 15.4% (inactive) |
| COc1ccc(CN(C)C[C@H]2Oc3c(NC(=O)Nc4ccc(C(F)(F)F)cc4)cccc3C(=O)N([C@@H](C)CO)C[C@H]2C)cc1 | -11.1% (inactive) |
| C[C@@H]1CN([C@H](C)CO)C(=O)c2cccc(NC(=O)c3nc4ccccc4s3)c2O[C@@H]1CN(C)Cc1ccc2c(c1)OCO2 | -22.1% (inactive) |

Same assay, conditions: NIH/3T3 viability, ATP luminescence (CellTiter-Glo), 90 h; at 21 µM (top of the series)

| SMILES | activity change, negative = cytotoxicity |
| --- | --- |
| Cc1ccc(S(=O)(=O)N(C)C[C@H]2Oc3ccc(NS(=O)(=O)c4ccc(Cl)cc4)cc3CC(=O)N([C@@H](C)CO)C[C@@H]2C)cc1 | -2.46% (inactive) |
| C[C@H]1CN([C@@H](C)CO)C(=O)c2cccc(NC(=O)c3ccncc3)c2O[C@@H]1CN(C)Cc1ccccc1 | 10.2% (inactive) |
| C[C@H]1CN([C@@H](C)CO)C(=O)Cc2cc(NS(=O)(=O)c3ccc(F)cc3)ccc2O[C@@H]1CN(C)Cc1ccc(Cl)c(Cl)c1 | -12.6% (inactive) |
| C[C@H]1CN([C@@H](C)CO)C(=O)c2cccc(NC(=O)c3ccncc3)c2O[C@H]1CN(C)Cc1ccc2c(c1)OCO2 | 4.17% (inactive) |
| C[C@H]1CN([C@@H](C)CO)C(=O)c2cccc(NC(=O)c3ccncc3)c2O[C@H]1CN(C)Cc1ccc(Oc2ccccc2)cc1 | 7.51% (inactive) |
| Cc1ccc(S(=O)(=O)Nc2ccc3c(c2)CC(=O)N([C@@H](C)CO)C[C@@H](C)[C@@H](CN(C)Cc2ccc(Cl)c(Cl)c2)O3)cc1 | -67.6% (inactive) |
| Cc1ccc(S(=O)(=O)N(C)C[C@@H]2Oc3c(NC(=O)c4nc5ccccc5s4)cccc3C(=O)N([C@H](C)CO)C[C@H]2C)cc1 | 44.2% (inactive) |
| Cc1ccc(S(=O)(=O)N(C)C[C@@H]2Oc3ccc(NS(=O)(=O)c4ccc(Cl)cc4)cc3CC(=O)N([C@H](C)CO)C[C@H]2C)cc1 | -11.6% (inactive) |
| C[C@H]1CN([C@@H](C)CO)C(=O)c2cccc(NC(=O)c3ccncc3)c2O[C@@H]1CN(C)CC1CCCCC1 | -19.3% (inactive) |
| Cc1ccc(S(=O)(=O)Nc2ccc3c(c2)CC(=O)N([C@H](C)CO)C[C@@H](C)[C@H](CN(C)Cc2ccccc2)O3)cc1 | 9.12% (inactive) |
